Measured values reported in PMC11253567, “Drug repurposing of pyrazolotriazine derivatives as potential anti-SARS-CoV-2 agents: in vitro and in silico studies” (BMC Chemistry, 2024).
Several values for one entry are separate records, joined by “and”; a condition that tells them apart may be missing. Identical values can stand only once. Like-named read-outs stand apart in the source and are kept apart here.

Tests used:
[1] = test system: SARS-CoV-2 (hCoV-19/Egypt/NRC-03/2020); conditions: cited from earlier work
[2] = in vitro; conditions: African green monkey
[3] = test system: SARS-CoV-2 (hCoV-19/Egypt/NRC-03/2020); assay: Inhibitory concentration 50 (IC50) determination, crystal violet CPE assay in VERO-E6 cells; conditions: for IC50: 50% reduction of virus-induced CPE
[4] = test system: VERO-E6 cells; conditions: African green monkey
[5] = test system: VERO-E6 cells; conditions: cited from earlier work
[6] = standard reference drug, SARS-CoV-2
[7] = Severe acute respiratory syndrome coronavirus 2, Vero C1008, SARS-CoV-2 in VERO-E6 cells

SMILES	CC50 [2]	IC50 ([3]; SARS-CoV-2 in VERO-E6 cells)	SI (CC50/IC50) [3]	IC50 [3, 7]	further results
CCN(CC)CCCC(C)Nc1ccnc2cc(Cl)ccc12 (stereo not drawn) [Chloroquine]					IC50 [1, 6]: 24.9 µM
CCOC(=O)c1cnn2c(-c3ccccc3)nc(NCc3ccccc3)nc12 [Compound 1]	463 µM	2.4 µM	190 and 192.8	2.45 µM	
CCOC(=O)c1cnn2c(-c3ccc(Br)cc3)nc(NCc3ccccc3)nc12 [Compound 2]	445 µM	11.2 µM	39.7	11.2 µM	
CCOC(=O)c1cnn2c(-c3ccc(Cl)cc3)nc(NCc3ccccc3)nc12 [Compound 3]	88.1 µM	17.8 µM	4.9	17.8 µM	CC50 [4]: 88 µM
CCOC(=O)c1cnn2c(-c3ccccc3)nc(N3CCCCC3)nc12 [Compound 4]	366 µM	61.8 µM	5.9	61.9 µM	
CCOC(=O)c1cnn2c(-c3ccc(Cl)cc3)nc(N3CCCCC3)nc12 [Compound 5]	87.5 µM		31.2	2.8 µM	
CCOC(=O)c1cnn2c(-c3ccccc3)nc(NCCc3ccccc3)nc12 [Compound 6]			2.5		
CCOC(=O)c1cnn2c(-c3ccc(Br)cc3)nc(N3CCCC3)nc12 [Compound 7]	279 µM		10.6	26.1 µM	
O=C(NCc1ccccc1)c1cnn2c(-c3ccccc3)nc(NCc3ccccc3)nc12 [Compound 8]	400 µM	55 µM	7.2	55.1 µM	
O=C(NCCc1ccccc1)c1cnn2c(-c3ccccc3)nc(NCCc3ccccc3)nc12 [Compound 9]	578 µM	44.2 µM	13.0	44.2 µM	
O=C(NCCc1ccccc1)c1cnn2c(-c3ccc(Cl)cc3)nc(NCCc3ccccc3)nc12 [Compound 10]	343 µM	60.7 µM	5.6	60.8 µM	
NC(=O)c1nc(F)c[nH]c1=O [Favipiravir]					IC50 [1, 6]: 1380 µM; SI (CC50/IC50) ([1]; standard reference drug): 3.8; CC50 [5]: 5260 µM
CCN(CCO)CCCC(C)Nc1ccnc2cc(Cl)ccc12 (stereo not drawn) [Hydroxy-chloroquine, Hydroxychloroquine]					IC50 [1, 6]: 36.9 µM; SI (CC50/IC50) ([1]; standard reference drug): 9.7; CC50 ([5]; standard reference drug): 356 µM
CCC(CC)COC(=O)[C@H](C)N[P@](=O)(OC[C@H]1O[C@@](C#N)(c2ccc3c(N)ncnn23)[C@H](O)[C@@H]1O)Oc1ccccc1 [Remdesivir]					IC50 ([1]; reference drug): 3.38 µM; CC50 ([5]; reference drug): 58.1 µM
